Data reported in US20210179680A1, “POLYPEPTIDE, DERIVATIVES THEREOF, AND APPLICATION THEREOF IN PREPARATION OF DRUGS HAVING RESISTANCE TO PULMONARY FIBROSIS” (priority 2016, published 2021).
Bridge positions count the residues as written; N and C are the ends. Square brackets hold non-standard residues; d marks the D form. Peptide text beside a SMILES is read from it. S5 = C=CCCC[C@](C)(N)C(=O)O

How the values were obtained:
[1] = α-helix ratio of polypeptides by circular dichroism; format: physicochemical; conditions: PBS solution, 1 mg/mL
Method: The α-helix ratio of the polypeptide was measured by a circular dichromatograph (purchased from Jasco, Japan). The polypeptides MR2, S1, S2, S3, S4, S5, S6, S7, S8, S9, S10 and S11 prepared in Example 1 were dissolved in PBS solution, and the working concentration of the circular dichromatograph was adjusted to 1 mg/mL. […] Among them, the α-helix ratio refers to the percentage of the number of peptide segments of the polypeptide that maintains the alpha helix of the secondary structure in the peptide segments of the total polypeptide.

[2] = system: mice with bleomycin-induced pulmonary fibrosis; experiment: Lung weight index in mice with pulmonary fibrosis; format: in vivo, C57BL/6 mice; conditions: 2 mg/kg i.p., after 28 days, lung weight (mg) divided by body weight (g)
Method: Male C57BL/6 mice were fasted overnight, then anesthetized with 45 mg/kg sodium pentobarbital by injection intraperitoneally (i.p.), and intratracheally injected with bleomycin at a dose of 3 U/kg. The specific operation steps are as follows: cut the neck skin of the mouse with as little trauma as possible, expose the trachea with the assistance of elbow ophthalmic forceps, puncture the trachea and inject about 50 μL of bleomycin into the trachea with a microsyringe, rotate the mouse quickly and stand it upright for 5 minutes in order to make bleomycin evenly enter the left and right lobe, thereby constructing an animal model. The whole operation was performed at a surgical table at about […]. Mice in the sham operation group were intratracheally injected with an equal amount of physiological saline for injection.
Pulmonary fibrosis model was prepared according to the method described in Example 2, and administered in groups according to Table 3. After 28 days, the lungs of the mice were finely stripped and weighed, and a lung weight index was obtained from dividing the lung weight (mg) by the body weight (g) of the mice. […] In FIG. 7, “##” represents that P value is less than 0.01 when the lung weight index of administration group was compared with that of the sham operation group; “*” represents that P value is less than 0.05 when the lung weight index of administration group was compared with that of the bleomycin group; “**” represents that P value is less than 0.01 when the lung weight index of administration group was compared with that of bleomycin group.
Pulmonary fibrosis models were made according to the method described in Example 2 and administered in groups according to Table 9. After 28 days, the lungs of the mice were finely stripped and weighed, and the lung weight (mg) was divided by the body weight (g) of the mice to obtain a lung weight index. […] In FIG. 13, “##” represents that P value is less than 0.01 when the lung weight index of the administration groups were compared with that of the sham operation group; “*” represents that P value is less than 0.05 and “**” represents that P value is less than 0.01 when the lung weight index of the administration groups were compared with bleomycin group.

Compound | α-helicity (%) [1] | Lung weight index ([2]; Table 3 groups) | α-helix ratio compared with polypeptide MR2 (in words) [1] | Lung weight index ([2]; Table 9 groups)
CSCC[C@H](NC(=O)[C@H](CC(C)C)NC(=O)[C@@H](N)Cc1c[nH]cn1)C(=O)N[C@@H](C)C(=O)N[C@@H](CS)C(=O)N[C@@H](Cc1ccccc1)C(=O)N[C@H](C(=O)N[C@@H](CS)C(=O)N[C@@H](C)C(=O)N[C@@H](CCCCN)C(=O)N[C@@H](CCCCN)C(=O)N[C@@H](CC(C)C)C(=O)N[C@@H](CCCCN)C(=O)N[C@@H](CCCCN)C(=O)N[C@@H](CCCNC(=N)N)C(=O)O)[C@@H](C)O [MR2] (H-HLMACFTCAKKLKKR-OH; N-terminus and C-terminus assumed) | 0.0% | 11.4625 | – | –
CSCC[C@@H]1NC(=O)[C@H](CC(C)C)NC(=O)[C@@](C)(N)CCCC=CCCC[C@@](C)(C(=O)N[C@@H](Cc2ccccc2)C(=O)N[C@H](C(=O)N[C@@H](CS)C(=O)N[C@@H](C)C(=O)N[C@@H](CCCCN)C(=O)N[C@@H](CCCCN)C(=O)N[C@@H](CC(C)C)C(=O)N[C@@H](CCCCN)C(=O)N[C@@H](CCCCN)C(=O)N[C@@H](CCCNC(=N)N)C(=O)O)[C@@H](C)O)NC(=O)[C@H](C)NC1=O [S1, S5-Leu-Met-Ala-S5-Phe-Thr-Cys-Ala-Lys-Lys-Leu-Lys-Lys-Arg] (H-[S5]LMA[S5]FTCAKKLKKR-OH; staple 1-5; N-terminus and C-terminus assumed) | 39.5% | 8.675 | significantly higher than that of polypeptide MR2 | –
CSCC[C@@H]1NC(=O)[C@@](C)(NC(=O)[C@@H](N)Cc2c[nH]cn2)CCCC=CCCC[C@@](C)(C(=O)N[C@H](C(=O)N[C@@H](CS)C(=O)N[C@@H](C)C(=O)N[C@@H](CCCCN)C(=O)N[C@@H](CCCCN)C(=O)N[C@@H](CC(C)C)C(=O)N[C@@H](CCCCN)C(=O)N[C@@H](CCCCN)C(=O)N[C@@H](CCCNC(=N)N)C(=O)O)[C@@H](C)O)NC(=O)[C@H](CS)NC(=O)[C@H](C)NC1=O [S2, His-S5-Met-Ala-Cys-S5-Thr-Cys-Ala-Lys-Lys-Leu-Lys-Lys-Arg] (H-H[S5]MAC[S5]TCAKKLKKR-OH; staple 2-6; N-terminus and C-terminus assumed) | 25.7% | 9.35 | significantly higher than that of polypeptide MR2 | –
CC(C)C[C@H](NC(=O)[C@H](CCCCN)NC(=O)[C@H](CCCCN)NC(=O)[C@H](C)NC(=O)[C@H](CS)NC(=O)[C@]1(C)CCCC=CCCC[C@](C)(NC(=O)[C@H](CC(C)C)NC(=O)[C@@H](N)Cc2c[nH]cn2)C(=O)N[C@@H](C)C(=O)N[C@@H](CS)C(=O)N[C@@H](Cc2ccccc2)C(=O)N1)C(=O)N[C@@H](CCCCN)C(=O)N[C@@H](CCCCN)C(=O)N[C@@H](CCCNC(=N)N)C(=O)O [S3, His-Leu-S5-Ala-Cys-Phe-S5-Cys-Ala-Lys-Lys-Leu-Lys-Lys-Arg] (H-HL[S5]ACF[S5]CAKKLKKR-OH; staple 3-7; N-terminus and C-terminus assumed) | 42.1% | 8.8 | significantly higher than that of polypeptide MR2 | –
CSCC[C@H](NC(=O)[C@H](CC(C)C)NC(=O)[C@@H](N)Cc1c[nH]cn1)C(=O)N[C@@]1(C)CCCC=CCCC[C@@](C)(C(=O)N[C@@H](C)C(=O)N[C@@H](CCCCN)C(=O)N[C@@H](CCCCN)C(=O)N[C@@H](CC(C)C)C(=O)N[C@@H](CCCCN)C(=O)N[C@@H](CCCCN)C(=O)N[C@@H](CCCNC(=N)N)C(=O)O)NC(=O)[C@H]([C@@H](C)O)NC(=O)[C@H](Cc2ccccc2)NC(=O)[C@H](CS)NC1=O [S4, His-Leu-Met-S5-Cys-Phe-Thr-S5-Ala-Lys-Lys-Leu-Lys-Lys-Arg] (H-HLM[S5]CFT[S5]AKKLKKR-OH; staple 4-8; N-terminus and C-terminus assumed) | 33.6% | 8.925 | significantly higher than that of polypeptide MR2 | –
CSCC[C@H](NC(=O)[C@H](CC(C)C)NC(=O)[C@@H](N)Cc1c[nH]cn1)C(=O)N[C@@H](C)C(=O)N[C@@]1(C)CCCC=CCCC[C@@](C)(C(=O)N[C@@H](CCCCN)C(=O)N[C@@H](CCCCN)C(=O)N[C@@H](CC(C)C)C(=O)N[C@@H](CCCCN)C(=O)N[C@@H](CCCCN)C(=O)N[C@@H](CCCNC(=N)N)C(=O)O)NC(=O)[C@H](CS)NC(=O)[C@H]([C@@H](C)O)NC(=O)[C@H](Cc2ccccc2)NC1=O [S5, His-Leu-Met-Ala-S5-Phe-Thr-Cys-S5-Lys-Lys-Leu-Lys-Lys-Arg] (H-HLMA[S5]FTC[S5]KKLKKR-OH; staple 5-9; N-terminus and C-terminus assumed) | 69.1% | 8.575 | significantly higher than that of polypeptide MR2 | –
CSCC[C@H](NC(=O)[C@H](CC(C)C)NC(=O)[C@@H](N)Cc1c[nH]cn1)C(=O)N[C@@H](C)C(=O)N[C@@H](CS)C(=O)N[C@@]1(C)CCCC=CCCC[C@@](C)(C(=O)N[C@@H](CCCCN)C(=O)N[C@@H](CC(C)C)C(=O)N[C@@H](CCCCN)C(=O)N[C@@H](CCCCN)C(=O)N[C@@H](CCCNC(=N)N)C(=O)O)NC(=O)[C@H](C)NC(=O)[C@H](CS)NC(=O)[C@H]([C@@H](C)O)NC1=O [S6, His-Leu-Met-Ala-Cys-S5-Thr-Cys-Ala-S5-Lys-Leu-Lys-Lys-Arg] (H-HLMAC[S5]TCA[S5]KLKKR-OH; staple 6-10; N-terminus and C-terminus assumed) | 36.4% | 9.725 | significantly higher than that of polypeptide MR2 | –
CSCC[C@H](NC(=O)[C@H](CC(C)C)NC(=O)[C@@H](N)Cc1c[nH]cn1)C(=O)N[C@@H](C)C(=O)N[C@@H](CS)C(=O)N[C@@H](Cc1ccccc1)C(=O)N[C@@]1(C)CCCC=CCCC[C@@](C)(C(=O)N[C@@H](CC(C)C)C(=O)N[C@@H](CCCCN)C(=O)N[C@@H](CCCCN)C(=O)N[C@@H](CCCNC(=N)N)C(=O)O)NC(=O)[C@H](CCCCN)NC(=O)[C@H](C)NC(=O)[C@H](CS)NC1=O [S7, His-Leu-Met-Ala-Cys-Phe-S5-Cys-Ala-Lys-S5-Leu-Lys-Lys-Arg] (H-HLMACF[S5]CAK[S5]LKKR-OH; staple 7-11; N-terminus and C-terminus assumed) | 51.0% | 7.675 | significantly higher than that of polypeptide MR2 | –
CSCC[C@H](NC(=O)[C@H](CC(C)C)NC(=O)[C@@H](N)Cc1c[nH]cn1)C(=O)N[C@@H](C)C(=O)N[C@@H](CS)C(=O)N[C@@H](Cc1ccccc1)C(=O)N[C@H](C(=O)N[C@@]1(C)CCCC=CCCC[C@@](C)(C(=O)N[C@@H](CCCCN)C(=O)N[C@@H](CCCCN)C(=O)N[C@@H](CCCNC(=N)N)C(=O)O)NC(=O)[C@H](CCCCN)NC(=O)[C@H](CCCCN)NC(=O)[C@H](C)NC1=O)[C@@H](C)O [S8, His-Leu-Met-Ala-Cys-Phe-Thr-S5-Ala-Lys-Lys-S5-Lys-Lys-Arg] (H-HLMACFT[S5]AKK[S5]KKR-OH; staple 8-12; N-terminus and C-terminus assumed) | 29.1% | 8.775 | significantly higher than that of polypeptide MR2 | –
S19: chimeric polypeptide Pep2-MR2, amino acid sequence SEQ ID NO: 19 (HLYVSPWGGHLMACFTCAKKLKKR; chimeric polypeptide Pep2-MR2 S19) | – | – | – | 8.675
S20: chimeric polypeptide TAT-MR2, amino acid sequence SEQ ID NO: 20 (YGRKKRRQRRRGGHLMACFTCAKKLKKR; chimeric polypeptide TAT-MR2 S20) | – | – | – | 10.0625
S21: chimeric polypeptide Antp-MR2, amino acid sequence SEQ ID NO: 21 (RQIKIWFQNRRMKWKKGGHLMACFTCAKKLKKR; chimeric polypeptide Antp-MR2 S21) | – | – | – | 11.2125
